{"source": "patent US7101915B1", "about": "“P-terphenyl compounds” (Shionogi & Co., Ltd., priority 1996, dated 2006)", "assay_type_in_all_cases": "cell-based", "key": {"[1]": {"tested_on": "IgM production of human peripheral lymphocytes", "test": "Suppressive effect on the antibody production of human lymphocytes: IgM", "conditions": "10 days, ELISA", "method": "(§1) Experiment 5 Suppressive Effect on the Antibody Production of Human Lymphocytes\n(§2) 1) Human Peripheral Blood\n(§3) Human peripheral blood was drawn from healthy male adults by plastic syringes filled with heparin (final concentration 1.5%). Lymphocytes were collected immediately after blood was drawn.\n(§4) RPMI medium (Nissui Pharmaceutical Co., Ltd.) containing 10% fetal bovine serum (HyClone Lab.) inactivated at 56° C. for 30 minutes, penicillin (100 units/ml) and streptomycin (100 μg/ml) (GIBCO) was used. […]\n(§5) In 96-well cultivating plate (Sumitomo bakelite) the lymphocytes were inoculated 2×10^5 cells per well, and the compound, anti-human CD 40 antigen (Pharmingen, 2 μg/ml), human recombinant interleukin-4 (IL-4) (Genzyme, 0.1 μg/ml) and human recombinant interleukin-10 (IL-10) (Genzyme, 0.2 μg/ml) were added and cultivated at 37° C. under 5% of CO2 (0.2 ml/well). After the cultivation for 10 days, the amount of antibody in a supernatant was quantified by ELISA method.\n(§6) 7) Quantification of the IgG and IgM Antibodies\n(§7) ELISA method was used for the quantification. […] After washing three times with PBST, 100 μl of a sample diluted with PBS or 100 μl of human Plasma IgG standard solution or IgM standard solution (BioPur AG, Switzerland) of a pre-determined concentration was added and incubated at room temperature for 1 hour. […]"}, "[2]": {"tested_on": "C3H/HeN mouse splenocytes stimulated with Concanavalin A (Con A)", "test": "Suppressive effect on mitogenic activity of mouse splenocytes in vitro, Con A as mitogen (MTT)", "conditions": "Con A 5 μg/ml as mitogen, 3 days", "method": "(§8) Experiment 1 Suppressive Effect on a Mitogenic Activity of Mouse Splenocytes In Vitro\n(§9) In 96-well microtiter plate 5×10^5 C3H/HeN mouse splenocytes suspended in 0.1 ml of 10% fetal bovine serum-fortified RPMI 1640 medium containing 2 mM of sodium bicarbonate, 50 units/ml of penicillin, 50 μg/ml of streptomycin and 5×10^−5 M of 2-mercaptoethanol were added. Then, 5 μg/ml of Concanavalin A (Con A) or 10 μg/ml of lipopolysaccharide (LPS) as a mitogen and the compound of a pre-determined concentration of the present invention were added to each well so that a final volume of each well reached 0.2 ml. Each compound of the present invention was dissolved in dimethylsulfoxide (DMSO) and diluted with the above RPMI 1640 medium to adjust the final concentration of 100 ng/ml or less. The splenocytes in the 96-well microtiter plate were cultivated at 37° C. for 3 days in an incubator keeping the humidity 100%, carbon dioxide 5% and air 95%. Then, 25 μl of 6 mg/ml MTT [3-(4,5-dimethylthiazol-2-yl)-2,5-diphenyltetrazolium bromide] (Sigma) was added to the each well and cultivated at 37° C. for 4 hours under the same conditions. After the cultivation, 50 μl of 0.02 N hydrochloric acid in 20% sodium dodecyl sulfate (SDS) was added to formazan generated and left at 37° C. for 24 hours for dissolving formazan. An absorption intensity (OD) of formazan generated in proportion to the number of living cells was measured with an immunoreader (InterMed) equipped with a 570 nm filter (The Journal of Immunological Method, 65, 55-63, 1983). The 50% inhibitory concentration of a cell proliferation (IC 50) was calculated from a correlation between the concentration of the compound of the present invention and the absorption intensity."}, "[3]": {"tested_on": "C3H/HeN mouse splenocytes stimulated with lipopolysaccharide (LPS)", "test": "Suppressive effect on mitogenic activity of mouse splenocytes in vitro, LPS as mitogen (MTT)", "conditions": "LPS 10 μg/ml as mitogen, 3 days", "method": "as §8, §9"}, "[4]": {"tested_on": "IgE antibody production of human peripheral lymphocytes (anti-human CD 40, IL-4, IL-10)", "test": "Suppressive effect on the antibody production of human lymphocytes: IgE", "conditions": "10 days, ELISA", "method": "as §1, §2, §3\nRPMI medium (Nissui Pharmaceutical Co., Ltd.) containing 10% fetal bovine serum (HyClone Lab.) inactivated at 56° C. for 30 minutes, penicillin (100 units/ml) and streptomycin (100 μg/ml) (GIBCO) was used.\nAfter the compound (I-839) of the present invention was dissolved in dimethylsulfoxide (Nakaraitesk) at […], the solution was diluted with the medium to adjust a final concentration to be 0.01 μg/ml −10 μg/ml. […]\nas §5\n6) Quantification of the IgE Antibody\nA commercial kit MESACUP IgE test (Medical & Biological Laboratories Co., Ltd.) was used for the quantification of the IgE. […]"}, "[5]": {"tested_on": "mouse thymoma strain EL4 cells", "test": "Anti-proliferative activity on EL4 cells (MTT)", "conditions": "3 days", "method": "Experiment 2 Anti-Proliferative Activity on EL4 Cells\nIn 96-well microtiter plate 4×10^4/0.1 ml of mouse thymoma strain EL4 cells were added and 0.1 ml of the compound of the present invention was added to the mixture so that the concentration was in the range of 0-5,000 ng/ml. After the cultivation for 3 days, the IC50 was calculated by the MTT method as described in Experiment 1."}, "[6]": {"tested_on": "IgG production of human peripheral lymphocytes", "test": "Suppressive effect on the antibody production of human lymphocytes: IgG", "conditions": "10 days, ELISA", "method": "as §1, §2, §3, §4, §5, §6, §7"}}, "data": [{"smiles": "COc1cc(-c2ccc(O)cc2)c(OC)c(O)c1-c1ccc(OCC=C(Cl)Cl)c(O)c1", "note": "[Compound I-121]", "values": [{"measurement": "IC50 IgM", "setting": "[1]", "value": ">1", "unit": "ng/mL"}, {"measurement": "ConA IC50", "setting": "[2]", "value": 0.8, "unit": "ng/mL"}, {"measurement": "LPS IC50", "setting": "[3]", "value": 1.2, "unit": "ng/mL"}, {"measurement": "IC50 IgE", "setting": "[4]", "value": "<0.0001", "unit": "ng/mL"}, {"measurement": "EL-4 IC50", "setting": "[5]", "value": 0.8, "unit": "ng/mL"}, {"measurement": "IC50 IgG", "setting": "[6]", "value": "<0.0001", "unit": "ng/mL"}]}]}
